Ten compounds from patent US9096598B2 (Merck Sharp & Dohme Corp., priority 2011, dated 2015) can be followed below.

The target of one assay is T1, JAK3 (Homo sapiens, UniProt P52333).
T1 construct: recombinant purified GST-tagged catalytic domain for each enzyme; purchased Invitrogen M4290
Briefly: Jak Biochemical HTRF Assay (JAK3). To be noted: recombinant purified GST-tagged catalytic domain, [ATP] 2.9 μM, values given as range classes. The gist of the method: (§1)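 GST-tagged recombinant catalytic domain and biotinylated peptide substrate were preincubated with compound for 30 min at room temperature in kinase buffer with 2 mM DTT and 0.05% BSA. ATP then started a 120 min reaction. Phosphopeptide was detected by HTRF (Eu-pY20/streptavidin-Dylight 650, 665/615 nm ratio), and IC50 came from a 4-parameter fit of percent inhibition.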

For the next assay, the target named is T2, JAK2 (Homo sapiens, UniProt O60674).
T2 construct: recombinant purified GST-tagged catalytic domain for each enzyme; purchased Invitrogen M4290
T2 sequence (O60674 849-1124 limits assumed): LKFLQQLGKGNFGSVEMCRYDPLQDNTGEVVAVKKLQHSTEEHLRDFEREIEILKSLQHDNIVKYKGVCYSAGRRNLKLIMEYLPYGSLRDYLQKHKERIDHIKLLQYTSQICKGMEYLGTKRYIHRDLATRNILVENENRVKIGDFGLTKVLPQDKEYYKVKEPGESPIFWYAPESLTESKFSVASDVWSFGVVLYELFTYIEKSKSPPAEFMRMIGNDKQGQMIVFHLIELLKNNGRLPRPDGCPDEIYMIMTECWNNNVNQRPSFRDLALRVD
Briefly: Jak Biochemical HTRF Assay (JAK2). To be noted: recombinant purified GST-tagged catalytic domain, [ATP] 8.5 μM, values given as range classes. In outline:
as §1
Background: In TR-FRET formats the signal depends on donor and acceptor labels being close together.

The structures appear in SMILES notation.

T1 sequence (P52333 822-1111 limits assumed): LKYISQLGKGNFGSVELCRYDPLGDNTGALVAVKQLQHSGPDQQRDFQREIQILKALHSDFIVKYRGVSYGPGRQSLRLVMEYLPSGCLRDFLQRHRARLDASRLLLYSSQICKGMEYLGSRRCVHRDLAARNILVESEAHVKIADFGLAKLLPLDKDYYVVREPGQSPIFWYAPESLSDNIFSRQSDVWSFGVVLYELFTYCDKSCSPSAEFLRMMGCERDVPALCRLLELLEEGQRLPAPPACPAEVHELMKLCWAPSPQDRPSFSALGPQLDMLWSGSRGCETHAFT

What is called IC50 is the concentration needed to halve the response being measured. As for `CC(C)[C@@H](Nc1cncc(-c2c[nH]c3ncc(COC4CCN(C(=O)OC(C)(C)C)CC4)cc23)c1)C(=O)NCC(F)(F)F` [Example 9-6, tert-butyl 4-({3-[5-({(1R)-2-methyl-1-[(2,2,2-trifluoroethy)carbamoyl]propyl}amino)pyridin-3-yl]-1H-pyrrolo[2,3-b]pyridin-5-yl}methoxy)piperidine-1-carboxylate], the IC50 on JAK3 was no more than 0.01 µM; on JAK2 it was 0.01 to 0.5 µM.
As to `COc1cnc2[nH]cc(-c3cncc(N[C@H](C(=O)NCC(F)(F)F)C(C)C)c3)c2c1` [Example 1-45, N~2~-[5-(5-methoxy-1H-pyrrolo[2,3-b]pyridin-3-yl)pyridin-3-yl]-N-(2,2,2-trifluoroethyl)valinamide], the IC50 was no more than 0.01 µM on JAK3 and 0.01 to 0.5 µM at JAK2.
Regarding `O=C(NCC(F)(F)F)[C@H]1CCCC[C@H]1Nc1cncc(-c2c[nH]c3ncc(Cl)cc23)c1` [Example 1-33, (1S,2R)-2-{[5-(5-chloro-1H-pyrrolo[2,3-b]pyridin-3-yl)pyridin-3-yl]amino}-N-(2,2,2-trifluoroethyl)cyclohexane-carboxamide], the values for the IC50 at JAK3 and on JAK2 were no more than 0.01 µM and 0.01 to 0.5 µM, respectively.
For `CC(C)C(Nc1cncc(-c2c[nH]c3ncc(OCC4CCN(C)CC4)cc23)c1)C(=O)NCC(F)(F)F` (centres unmarked) [Example 2-18, N~2~-(5-{5-[(1-methylpiperidin-4-yl)methoxy]-1H-pyrrolo[2,3-b]ppidin-3-yl}pyridin-3-yl)-N-(2,2,2-trifluoroethyl)valinamide], the IC50 was no more than 0.01 µM at JAK3 and 0.01 to 0.5 µM on JAK2.
The corresponding values for `C[C@H](Nc1cc(-c2c[nH]c3ncc(Cl)cc23)cnc1F)C(=O)NCC(F)(F)F` [Example 1-39, N~2~-[5-(5-chloro-1H-pyrrolo[2,3-b]pyridin-3-yl)-2-fluoropyridin-3-yl]-N-(2,2,2-trifluoroethyl)alaninamide] are no more than 0.01 µM and 0.01 to 0.5 µM.
In the case of `CC(C)[C@@H](Nc1cncc(-c2c[nH]c3ncc(C(=O)NC4CCOCC4)cc23)c1)C(=O)NCC(F)(F)F` [Example 3-5, 3-[5-({(1R)-2-methyl-1-[(2,2,2-trifluoroethyl)carbamoyl]propyl}amino)pyridin-3-yl]-N-(tetrahydro-2H-pyran-4-yl)-1H-pyrrolo[2,3-b]pyridine-5-carboxamide], the half-maximal inhibitory concentration (IC50) on JAK3 and at JAK2 was no more than 0.01 µM each time.
In the case of `CC(C)(Nc1cnnc(-c2c[nH]c3ncc(F)cc23)n1)C(=O)NCC(F)(F)F` [Example 1-6, N~2~-[3-(5-fluoro-1H-pyrrolo[2,3-b]pyridin-3-yl)-1,2,4-triazin-5-yl]-2-methyl-N-(2,2,2-trifluoroethyl)alaninamide], the IC50 at JAK3 is no more than 0.01 µM; at JAK2 it was 0.01 to 0.5 µM.
The corresponding values for `CC(C)[C@H](Nc1cncc(-c2c[nH]c3ncc(OCC4CC4)cc23)c1)C(=O)NCC(F)(F)F` [Example 2-6, N~2~-{5-[5-(cyclopropylmethoxy)-1H-pyrrolo[2,3-b]pyridin-3-yl]pyridin-3-yl}-N-(2,2,2-trifluoroethyl)valinamide] are no more than 0.01 µM and 0.01 to 0.5 µM.
Consider `CC(C)[C@@H](Nc1cncc(-c2c[nH]c3ncc(COCCN4CCN(C(=O)OC(C)(C)C)CC4)cc23)c1)C(=O)NCC(F)(F)F` [Example 9-3, tert-butyl 4-[2-({3-[5-({(1R)-2-methyl-1-[(2,2,2-trifluoroethyl)carbamoyl]propyl}amino)pyridin-3-yl]-1H-pyrrolo[2,3-b]pyridin-5-yl}methoxy)ethyl]piper-azine-1-carboxylate], for which the IC50 is no more than 0.01 µM on JAK3 and 0.01 to 0.5 µM at JAK2.
For `CC(C)[C@@H](Nc1cncc(-c2c[nH]c3ncc(COC(C)(C)C)cc23)c1)C(=O)NCC(F)(F)F` [Example 9-2, N~2~-{5-[5-(tert-butoxymethyl)-1H-pyrrolo[2,3-b]pyridin-3-yl]pyridin-3-yl}-N-(2,2,2-trifluoroethyl)-D-valinamide], in that order: 0.01 to 0.5 µM and 0.01 to 0.5 µM.
